Experimental data reported in publication PMC4770093, “The role of kinetic context in apparent biased agonism at GPCRs” (Nature Communications, 2016).
Several values for one entry are separate records, joined by “and”; a condition that tells them apart may be missing. Identical values can stand only once.

Key:
D2LR [1] = biological target: T1, D2LR (Homo sapiens, UniProt P14416); experiment: Quantification of biased agonism between pathways (operational model, LogBias); format: cell-based; set-up: expressed in transfected cells; conditions: 5 minute timepoint; dopamine as reference agonist
T1 sequence (P14416 whole entry): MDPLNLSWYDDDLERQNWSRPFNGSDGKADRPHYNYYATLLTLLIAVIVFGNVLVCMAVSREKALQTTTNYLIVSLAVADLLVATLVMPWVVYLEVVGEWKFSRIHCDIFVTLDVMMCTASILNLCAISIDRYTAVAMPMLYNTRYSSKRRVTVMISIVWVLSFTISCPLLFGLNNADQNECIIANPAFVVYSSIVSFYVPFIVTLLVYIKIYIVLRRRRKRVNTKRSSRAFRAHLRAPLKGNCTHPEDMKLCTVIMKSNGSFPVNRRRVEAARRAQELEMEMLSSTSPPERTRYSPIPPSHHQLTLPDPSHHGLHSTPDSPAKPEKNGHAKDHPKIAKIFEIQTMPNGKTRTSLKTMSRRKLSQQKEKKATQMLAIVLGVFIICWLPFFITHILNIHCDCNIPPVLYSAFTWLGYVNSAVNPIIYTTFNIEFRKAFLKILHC
Text: where Top and Bottom represent the maximal and minimal asymptote of the dose–response curve, [A] is the molar concentration of agonist and EC50 is the molar concentration of agonist required to give a response half way between bottom and top. Dose–response data were fitted to the following form of the operational model of agonism[12] to allow the quantification of biased agonism
where Em is the maximal possible response of the system, Basal is the basal level of response, KA represents the equilibrium dissociation constant of the agonist (A) and τ is an index of the signalling efficacy of the agonist that is defined as RT/KE, where RT is the total number of receptors and KE is the coupling efficiency of each agonist-occupied receptor, and n is the slope of the transducer function that links occupancy to response. The analysis assumes that the transduction machinery used for a given cellular pathway are the same for all agonists, such that the Em and transducer slope (n) are shared between agonists. Data for all compounds for each pathway were fit globally, to determine values of KA and τ. Biased agonism was quantified as previously described. […] The relative bias can then be calculated for each agonist at the two different signalling pathways by subtracting the Δlog(τ/KA) of one pathway from the other to give a ΔΔlog(τ/KA) value, which is a measure of bias. […] All affinity (pKi or pKA), potency (pEC50) and transduction ratio (log(τ/KA)) parameters were estimated as logarithms. When fold changes in bias are described, this was calculated by converting values of ΔΔlog(τ/KA) to the corresponding antilog value. […] Thus, as the application of t-tests and analyses of variance assume Gaussian distribution, estimating the parameters as logarithms allows valid statistical comparison. All results are expressed as the mean±s.e.m. As such, we performed a Brown–Forsythe test (Graphpad prism 6) to assure ourselves of equal variance when such parameters are compared.

D2LR [2] = biological target: T1, D2LR; experiment: β-Arrestin-2 recruitment (BRET); format: cell-based; set-up: expressed in transfected cells; conditions: 5 minute timepoint
Protocol: β-Arrestin-2 recruitment. […] To assess β-arrestin-2 recruitment to the D2LR, the cells were transfected with 1 μg Rluc8-tagged D2LR, 4 μg YFP–β-arrestin-2 and 2 μg GRK2. […] The cells were incubated with Coelenterazine (Promega) at a final concentration of 5 μM for 5 min, followed by stimulation with the agonists for an additional 5 min before the BRET readings were captured.

D2LR [3] = biological target: T1, D2LR; experiment: ERK1/2 phosphorylation assay (Alphascreen SureFire); format: cell-based; set-up: expressed in transfected cells; conditions: for alpahscreen assay to detect pERK1/2, counts: agonist 10 μM (cariprazine 1 μM), single experiments n=1 to n=4
Protocol: ERK1/2 phosphorylation was measured using the Alphascreen SureFire ERK kit (PerkinElmer, Waltham, USA). Cells were seeded into 96-well plates at a density of 50,000 cells per well. After 5–7 h, cells were washed with PBS and incubated in serum-free DMEM overnight before assaying. Dose–response experiments were performed for each ligand at 37 °C in the presence of 0.1% ascorbic acid. […] The plate was shaken for 5 min at room temperature (RT) before transferring 5 μl of the lysates to a white 384-well Proxiplate (PerkinElmer, Waltham, USA). […] Plates were read using a Fusion-TM plate reader (PerkinElmer, Waltham, USA).

D2LR [4] = biological target: T1, D2LR; experiment: GαoB G protein activation (BRET); format: cell-based; set-up: expressed in transfected cells; conditions: for Emax Gao: relative to the maximal response of ropinirole;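 for all read-outs here: Flp-In-CHO cells stably expressing D2LR, transiently transfected, agonist-stimulated in HBSS at 37 °C, net BRET read after coelenterazine, vehicle control subtracted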
Protocol: G protein activation. Flp-In-CHO cells stably expressing the D2LR were seeded at a density of 2,000,000 cells per 10-cm dish and were transfected the following day using polyethylenimine as the transfection reagent. […] Twenty-four hours after transfection, the cells were plated into 96-well CulturPlates (PerkinElmer) and grown overnight. The cells were equilibrated in Hank's balanced salt solution at 37 °C before starting the experiment. The cells were stimulated with the agonists for the indicated timeframes when the BRET readings were captured. Coelenterazine (Promega) was added at a final concentration of 5 μM at least 3 min before measurement. […] Net BRET was determined by subtraction of the vehicle control from the agonist-induced response.

D2LR [5] = biological target: T1, D2LR; experiment: xCELLigence cellular impedance (CI) assay; format: cell-based; set-up: expressed in transfected cells; conditions: for Emax CI: relative to the maximal response of ropinirole
Protocol: Changes in CI on ligand stimulation were measured using the xCELLigence system (Roche Applied Science). The baseline cell index of each well of a 96-well E-plate was measured in the presence of growth medium before cell seeding. Cells were seeded at a density of 20,000 cells per well and grown for 16–20 h followed by 4 h serum starvation. Cells were treated with the ligands and the cell index values were obtained immediately after ligand stimulation every 15 s for a total time of 90 min. The retrieved cell index values were then normalized by dividing the cell index at the time of ligand addition followed by subtraction of the vehicle control at each time point.

D2LR [6] = biological target: T1, D2LR; conditions: 0.1 nM [3H]spiperone; 3 h at 37 °C; 100 μM GppNHp
Protocol: The cells were harvested in PBS containing 2 mM EDTA and centrifuged at 300 g for 3 min. The resulting pellet was resuspended in ice-cold assay buffer (20 mM HEPES, 100 mM NaCl, 6 mM MgCl2, 1 mM EGTA and 1 mM EDTA pH 7.4) and the centrifugation step was repeated. The intact cell pellet was then resuspended in assay buffer and homogenized using a Polytron homogenizer. After centrifugation (1,000 g, 10 min), the pellet was discarded and the supernatant was recentrifuged at 30,000 g for 1 h at 4 °C using a Sorvall Evolution RC ultracentrifuge (Thermo Scientific). The resulting pellet was resuspended in assay buffer and stored in 250 μl aliquots at −80 °C. Membrane protein concentration was determined using the method of Bradford.
All radioligand binding experiments were conducted at 37 °C in a 1-ml reaction volume in assay buffer (20 mM HEPES, 100 mM NaCl, 6 mM MgCl2, 1 mM EGTA and 1 mM EDTA pH 7.4) containing 100 μM GppNHp and 0.1% ascorbic acid. In all cases, nonspecific binding was determined in the presence of 10 μM haloperidol. […] Filter-bound radioactivity was measured by scintillation spectrometry after the addition of 3.5 ml of Ultima Gold (PerkinElmer) using a Tri-Carb 2900TR liquid scintillation counter (PerkinElmer).
where Y denotes the percentage-specific binding, Top and Bottom denote the maximal and minimal asymptotes, respectively, IC50 denotes the X-value when the response is midway between Bottom and Top, and nH denotes the Hill slope factor. IC50 values obtained from the inhibition curves were converted to Ki values using the Cheng and Prusoff equation[61].

[7] = 5 minute timepoint, Flp-In-CHO-D2LR
[8] = 5 minute timepoint, dopamine as reference agonist

CN1CCN(c2cccc3[nH]c(=O)oc23)CC1 [Pardoprunox, pardoprunox]
LogBias CI – pERK1/2 (D2LR [1]): 0.24 ± 0.12 | LogBias Gαi1 – CI (D2LR [1]): 0.19 ± 0.18 | LogBias Gαi1 – GαoB (D2LR [1]): 0.48 ± 0.21 | LogBias Gαi1 – cAMP (D2LR [1]): 0.35 ± 0.17 | LogBias Gαi1 – pERK1/2 (D2LR [1]): 0.43 ± 0.19 | LogBias GαoB – CI (D2LR [1]): -0.29 ± 0.15 | LogBias GαoB – cAMP (D2LR [1]): -0.13 ± 0.15 | LogBias GαoB – pERK1/2 (D2LR [1]): -0.05 ± 0.16 | LogBias cAMP – CI (D2LR [1]): -0.16 ± 0.10 | LogBias cAMP – pERK1/2 (D2LR [1]): 0.08 ± 0.12 | LogBias β-arr2 – CI (D2LR [1]): -0.28 ± 0.33 | LogBias β-arr2 – Gαi1 (D2LR [1]): -0.47 ± 0.36 | LogBias β-arr2 – GαoB (D2LR [1]): 0.01 ± 0.34 | LogBias β-arr2 – cAMP (D2LR [1]): -0.12 ± 0.33 | LogBias β-arr2 – pERK1/2 (D2LR [1]): -0.04 ± 0.33 | Log(τ/KA) β-arrestin2 (D2LR [2]; ND = no agonist activity detected): 6.80 ± 0.29 | ΔLog(τ/KA) β-arrestin2 (D2LR [2]; dopamine as reference agonist): 0.47 ± 0.32 | Log(τ/KA) pERK1/2 (D2LR [3]; [7]): 9.06 ± 0.08 | ΔLog(τ/KA) pERK1/2 (D2LR [3]; [8]): 0.50 ± 0.10 | alpahscreen assay to detect pERK1/2, counts (D2LR [3]; time 7.5 mins): 13.2699 counts and 16.7995 counts and 15.0808 counts and 9.987 counts | alpahscreen assay to detect pERK1/2, counts (D2LR [3]; time 10 mins): 12.5176 counts and 12.8139 counts and 9.935 counts and 7.3291 counts | alpahscreen assay to detect pERK1/2, counts (D2LR [3]; time 20 mins): 2.97 counts and 3.103 counts and 2.735 counts and 1.953 counts | pEC50 Gao (D2LR [4]; 2 min): 7.78 | Emax Gao (D2LR [4]; 2 min): 82 ± 4.5 | pEC50 Gao (D2LR [4]; 5 min): 7.77 | Emax Gao (D2LR [4]; 5 min): 79 ± 4.3 | Log(τ/KA) GαoB activation (D2LR [4]; [7]): 7.70 ± 0.10 | ΔLog(τ/KA) GαoB activation (D2LR [4]; [8]): 0.45 ± 0.13 | pEC50 Gao (D2LR [4]; 10 min): 8.00 | Emax Gao (D2LR [4]; 10 min): 76 ± 3.2 | pEC50 Gao (D2LR [4]; 15 min): 8.21 | Emax Gao (D2LR [4]; 15 min): 81 ± 2.8 | pEC50 Gao (D2LR [4]; 30 min): 8.70 | Emax Gao (D2LR [4]; 30 min): 84 ± 3.1 | pEC50 Gao (D2LR [4]; 45 min): 8.71 | Emax Gao (D2LR [4]; 45 min): 85 ± 3.1 | pEC50 Gao (D2LR [4]; 60 min): 8.64 | Emax Gao (D2LR [4]; 60 min): 86 ± 2.7 | pEC50 Gao (D2LR [4]; 75 min): 8.34 | Emax Gao (D2LR [4]; 75 min): 80 ± 4.9 | pEC50 Gao (D2LR [4]; 90 min): 8.58 | Emax Gao (D2LR [4]; 90 min): 87 ± 2.5 | change in potency over time in the GαoB activation assay (D2LR [4]; time points from 2 to 90 min): sixfold | pEC50 CI (D2LR [5]; 2 min): 9.30 | Emax CI (D2LR [5]; 2 min): 75 ± 3.6 | pEC50 CI (D2LR [5]; 5 min): 9.41 | Emax CI (D2LR [5]; 5 min): 76 ± 2.7 | Log(τ/KA) Cellular impedance (D2LR [5]; [7]): 9.29 ± 0.06 | ΔLog(τ/KA) Cellular impedance (D2LR [5]; [8]): 0.74 ± 0.07 | pEC50 CI (D2LR [5]; 10 min): 9.22 | Emax CI (D2LR [5]; 10 min): 70 ± 2.2 | pEC50 CI (D2LR [5]; 15 min): 9.20 | Emax CI (D2LR [5]; 15 min): 67 ± 2.5 | pEC50 CI (D2LR [5]; 30 min): 9.06 | Emax CI (D2LR [5]; 30 min): 62 ± 2.9 | pEC50 CI (D2LR [5]; 45 min): 9.02 | Emax CI (D2LR [5]; 45 min): 59 ± 2.4 | pEC50 CI (D2LR [5]; 60 min): 8.95 | Emax CI (D2LR [5]; 60 min): 57 ± 2.2 | pEC50 CI (D2LR [5]; 75 min): 8.87 | Emax CI (D2LR [5]; 75 min): 54 ± 2.1 | pEC50 CI (D2LR [5]; 90 min): 8.80 | Emax CI (D2LR [5]; 90 min): 52 ± 2.0 | pKi (affinity from competition binding experiments using [3H]spiperone) (D2LR [6]): 7.63 ± 0.06
